These results are taken from US9320271B2, “Microbial composition” (Rohm and Haas Company, priority 2011, dated 2016).

SMILES strings stand for the structures. Several values for one entry are separate records, joined by “and”; a condition that tells them apart may be missing. Equal values may be shown once.

Assay [1] has as its system Staphylococcus aureus (10788 strain). Nature of the assay: 15 second contact kill test / antimicrobial efficacy of actives against S. aureus in water. Type of assay: cell-based. Here is the method: Selected materials were also tested against a representative Grant positive Staphylococcus aureus. An overnight culture of Staphylococcus aureus (10788 strain) was inoculated onto a […] Soy Agar (TSA) plate and grown for ca. 18 hrs at 37° C. The culture S. aureus was washed from the plate using sterile saline (0.85% NaCl) solution and a sterile spreader and suspended in 50 ml saline. This suspension was separated into equal volumes and centrifuged at 4000 rpm for 15 minutes. […] Here, OD620 indicates the absorbance of a sample in a cuvette of 1.0 cm path length at a wavelength of 620 nm. This bacterial stock was used for assaying against antimicrobial actives (in triplicate). The following assay describes the testing of 8 materials using 6 dilutions across half of a 96-well micro titre plate (MTP). Using this approach it is possible to assay 16 actives (without replicates) with one full dilution plate, replicating this set up in two halves of the plate columns, 1-6 and 7-12. 1M solutions of the test actives were prepared in dimethylsulphoxide (DMSO). […] Aliquots (270 μl) of the materials at 1.11 times the final concentration were dispensed into the wells of the MTP along one column (A1-H1). This MTP was labelled as the “Screening plate”. In another MTP, labelled as the “Dilution plate”, […] of D/E neutralising solution from DIFCO Composition was added to column 1. The composition of the neutralising solution was as follows: pancreatic digest of casein, 5.0 g/L; […] Dextrose, 10 g/L, sodium thioglycollate, 1.0 g/L, sodium thiosulphate, 6.0 g/L; sodium bisulphite, 2.5 g/L; […] […] From the colony number in this segment, NMBS is calculated by the formula: NMBS=log {Ncol·10^DF·100/3} Here, Ncol is the colony count, and DF is the dilution factor taken from the MTP-well corresponding to the TSA plate segment (i.e. DF may range from 1 for the quench, to 6 for the highest dilution). […] Here, OD620 indicates the absorbance of a sample in a cuvette of 1.0 cm path length at a wavelength, of 620 nm. […]

In assay [2] the test system is Escherichia coli (E. coli—ATCC #10536). Nature of the assay: Synergy test: high resolution MBC microtiter plate assay, phosphate buffer containing 35% dipropylene glycol, 15 seconds contact. It counts as cell-based. Particulars: E. coli 10536. From the text: The concentrations and ratios may also vary under different test conditions or with different test methods.
One measure of synergy is the industrially accepted method described by Kull, F. C.; Eisman, P. C.; Sylwestrowicz, H. D, and Mayer, R. L., in Applied Microbiology 9:538-541 (1961), using the ratio determined by the formula: […]=Synergy Index (“SI”) wherein; QA=concentration of compound A (first component) in percent, acting alone, which produced an end point (MBC of Compound A). Qa=concentration of compound A in percent, in the mixture, which produced an end point. QB=concentration of compound B (second component) in percent, acting alone, which, produced an end point (MBC of Compound B). Qb=concentration of compound B in percent, in the mixture, which produced an end point.
When the sum of Qa/QA and Qb/QB is greater than one, antagonism is indicated. […] The lower the SI, the greater is the synergy shown by that particular mixture. The minimum biocidal concentration (MBC) of a microbicide is the lowest concentration tested under a specific set of conditions that provides complete kill of the tested microorganisms.
Synergy tests were conducted using standard microliter plate assays with phosphate buffer containing 35% dipropylene glycol (DPG). In this method, a wide range of combinations of chemicals was tested by conducting high resolution MBC assays of Component (A) in the presence of various concentrations of Component (B). High resolution MBCs were determined by adding varying amounts of microbicide to one column of a microliter plate and doing subsequent […] dilutions using an automated liquid handling, system to obtain a series of closely spaced endpoints. The MBC plate was inoculated one column at a time with the test microorganism. An aliquot of the inoculated well was transferred at 15 seconds to a plate containing a neutralizing agent (D/E Neutralizing Broth), mixed and held for 5 minutes before being transferred to a growth plate containing trypticase soy broth (TSB). The TSB plate was incubated at 37° C. and read for the presence/absence of growth at 24 hours. The lowest level tested that provided complete kill (as evidenced by no growth in the microtitre plate) of the test organisms in 15 seconds is the minimum biocidal concentration (MBC).
The synergy of the combinations of the present invention was determined against a bacterium, Escherichia coli (E. coli—ATCC #10536), at a concentration of approximately 1×10^8 it bacteria per mL. This microorganism is representative of natural contaminants in many consumer and industrial applications.

On to `C=C(C)C1CC=C(CO)CC1` (stereo not shown) [(4-(prop-1-en-2-yl)cyclohex-1-enyl)methanol], for which the “S. aureus 6538 Log Reduction” value came out at 0.22 in assay [1] (0.2% perillyl alcohol alone) and 0.5 in assay [1] (0.25 Perillyl alcohol alone). Moreover, in assay [2] (at Qa and Qb, less than one = synergy), the “SI (Synergy Index)” value was 1.00. Also, in assay [2] (complete kill in 15 seconds, component alone), the “MBC of the component acting alone (QA / QB; Qa or Qb where the other component is 0)” value is 0.5 weight % and 0.3 weight %.
